Test results published in patent publication US8414760B2, “Biosensor electrode mediators for regeneration of cofactors” (priority 1997, dated 2013).

What was measured:
[1] = system: D-3-Hydroxybutyrate dehydrogenase (HBDH); assay: Assessment of mediator inhibition of D-3-hydroxybutyrate dehydrogenase (assay rate before and after filtration); type: biochemical, Pseudomonas sp.; design: Residual enzyme activity after filtration (percentage of the original activity): concentration or dose not given beside the values; details: for Assay Rate before filtration: 50 U/ml HBDH with mediator in Tris buffer pH 8.2, incubated 0.5 hours at 37.5 C, NADH at 340 nm, measure of efficiency as oxidant of NADH; for Assay Rate after filtration: enzyme reisolated from the mediator solution by filtration (30,000 cut-off), redissolved in Tris buffer; for Residual enzyme activity after filtration (percentage of the original activity): compared with control (no mediator)
Procedure: D-3-Hydroxybutyrate dehydrogenase (HBDH; EC 1.1.1.30) from Pseudomonas sp. was purchased from Toyobo Co., Ltd. p-Nicotinamide adenine dinucleotide (NAD^+) and D,L-3-hydroxybutyric acid were supplied by Boehringer Mannheim.
A series of 18 solutions (2.5 ml each) were prepared, each containing 50 U/ml HBDH and 1.29 or 2.58 mg of the following NAD(P)H mediators: MB(3), 4-Me-BQ(4), 1-Me0-PMS (5), DCIP(6), 1,10-PQ(7), 1,7-PQ(8), 2,9-Me2-1,10-PQ(10), 1-Me-1,10-PQ^+ (11), and [Ru(bpy)2(1,10-PQ)](PF6)2 (12) in Tris buffer (50 mM, pH 8.2). A control solution was also prepared, containing enzyme but no mediator. The solutions were incubated for 0.5 hours at 37.5 C, then assayed (in triplicate) for NADH at 340 nm, using a Sigma Diagnostics D-3-hydroxybutyrate kit. The extent of the interference of the added mediator with the assay rate compared to the control afforded a quantitative measure of the mediator's efficiency as an oxidant of NADH.
The enzyme was then reisolated from the mediator solutions by filtration through a polysulfone membrane (nominal molecular weight cut-off: 30,000) in a microcentrifuge filter (Millipore). The enzyme remaining on the filter was dissolved in Tris buffer (0.2 ml), and the resulting solution was assayed (in triplicate) with the Sigma kit. By comparing the results of the assays before and after filtration, the effect of any covalently and/or irreversibly bound mediator on the enzyme activity could be determined.

[2] = Evaluation of mediators as NADH mediators in dry strips (screen-printed electrodes, NADH dose response)
Procedure: Screen-printed electrodes incorporating 1,10-PQ and MB were produced from an organic carbon ink containing these NAD(P)H mediators at a level of 3.5 mg/g ink. The solid mediators were mixed into a commercial conducting carbon ink (Gwent Electronic Materials).
The dose response curve for the electrodes containing 1,10-PQ tested with aqueous NADH solutions (0-16.7 mM) in PBS at a poise potential of +400 mV versus a printed Ag/AgCl reference electrode is shown in FIG. 3. A slope of 0.58 nA mM^−1 NADH was recorded. The dose response curve for the electrodes containing MB tested with aqueous NADH solutions (0-12.4 mM) at a poise potential of +100 mV versus a printed Ag/AgCl reference electrode is shown in FIG. 4. An increased slope of 8.48 μA mM^−1 NADH was observed.

[3] = Dry strips containing HBDH and NAD+: response to D-3-hydroxybutyrate after storage
Procedure: Screen-printed electrodes were produced from an aqueous carbon ink incorporating 1,10-PQ or MB at a level of 2.4 or 4.3 mg/g ink, respectively, together with the enzyme HBDH (120 units/g ink) and NAD^+ (110 mg/g ink). The ink also contained a polysaccharide binder.
The electrodes were tested after 4, 14, and 26 weeks of storage (30° C., desiccated) with aqueous D-3-hydroxybutyrate solutions (0-25 mM) in PBS at a poise potential of +400 mV versus a printed Ag/AgCl reference electrode. All three dose responses were non-linear and levelled out with a current of 8.5 μA being recorded at 24 mM D-3-hydroxybutyrate.
The electrodes were tested after 2 and 14 weeks storage (30° C., desiccated) with aqueous D-3-hydroxybutyrate solutions (0-28 mM) in PBS at a poise potential of +100 mV versus a printed Ag/AgCl reference electrode. The dose response curves were similar to those in FIG. 4. A current of 8.6 μA was recorded at 24 mM D-3-hydroxybutyrate for these electrodes after 2 weeks storage. This is almost identical to responses obtained from dry strips containing 1,10-PQ.

Molecule | Assay Rate before filtration [1] | Assay Rate after filtration [1] | Slope of dose response curve to NADH ([2]; electrodes containing 1,10-PQ, NADH 0-16.7 mM in PBS, +400 mV versus Ag/AgCl) | Current at 24 mM D-3-hydroxybutyrate ([3]; after 4, 14 and 26 weeks of storage (30° C., desiccated), +400 mV versus Ag/AgCl) | Residual enzyme activity after filtration (percentage of the original activity) [1] | Slope of dose response curve to NADH ([2]; electrodes containing MB, NADH 0-12.4 mM, +100 mV versus Ag/AgCl) | Current at 24 mM D-3-hydroxybutyrate ([3]; after 2 weeks storage (30° C., desiccated), +100 mV versus Ag/AgCl)
O=C1C(=O)c2cccnc2-c2ncccc21 [1,10-PQ, 1,10-Phenanthroline quinone] | 0.149 absorbance units/min | 0.160 absorbance units/min | 0.58 nA mM^−1 NADH | 8.5 μA | – | – | –
C[N+](C)=c1ccc2nc3c(ccc4ccccc43)oc-2c1.[Cl-] [MB, Meldola's Blue] | 0.008 absorbance units/min | 0.026 absorbance units/min | – | – | 16% | 8.48 μA mM^−1 NADH | 8.6 μA
O=C1C(Cl)=CC(=Nc2ccc(O)cc2)C=C1Cl [DCIP, 2,6-Dichloroindophenol] | 0.104 absorbance units/min | 0.085 absorbance units/min | – | – | 57% | – | –
O=C1C(=O)c2ncccc2-c2ncccc21 [1,7-PQ, 1,7-Phenanthroline quinone] | 0.115 absorbance units/min | 0.150 absorbance units/min | – | – | – | – | –
[Ru(bpy)2(1,10-PQ)] (PF6)2 [[Ru(bpy)2(1,10-PQ)](PF6)2] | 0.114 absorbance units/min | 0.193 absorbance units/min | – | – | 98% | – | –
C[n+]1cccc2c1-c1ncccc1C(=O)C2=O.O=S(=O)([O-])C(F)(F)F [1-Me-1,10-PQ^+, 1-Me-1,10-phenanthrolinium quinone trifluoromethane sulphonate] | 0.150 absorbance units/min | 0.185 absorbance units/min | – | – | 94% | – | –
CC1=CC(=O)C(=O)C=C1 [Compound 4-Me-BQ, 4-Methyl-1,2-benzoquinone] | 0.005 absorbance units/min | 0.007 absorbance units/min | – | – | 4% | – | –
Cc1ccc2c(n1)-c1nc(C)ccc1C(=O)C2=O [2,9-Me2-1,10-PQ, 2,9-Dimethyl-1,10-phenanthroline quinone] | 0.189 absorbance units/min | – | – | – | – | – | –
COS(=O)(=O)[O-].COc1cccc2c1nc1ccccc1[n+]2C [Compound 1-MeO-PMS, 1-Methoxy phenazine methosulphate] | 0.009 absorbance units/min | 0.071 absorbance units/min | – | – | 47% | – | –
